Source: patent US20220098154A1 (IDEAYA Biosciences, Inc., priority 2019, published 2022)

target: T1, Pol theta polymerase domain (residues 1819-2590) (Homo sapiens, UniProt O75417); experiment: Primer extension assay: inhibition of polymerase activity of Pol theta (molecular beacon fluorescence); assay type: biochemical; details: Pol theta polymerase domain 4 nM; 15 min pre-incubation; fluorescence change over 30 min (ex 485 nm, em 535 nm); 11-point dilution series
T1 construct: Pol theta polymerase domain (residues 1819-2590)
T1 sequence (O75417 1819-2590): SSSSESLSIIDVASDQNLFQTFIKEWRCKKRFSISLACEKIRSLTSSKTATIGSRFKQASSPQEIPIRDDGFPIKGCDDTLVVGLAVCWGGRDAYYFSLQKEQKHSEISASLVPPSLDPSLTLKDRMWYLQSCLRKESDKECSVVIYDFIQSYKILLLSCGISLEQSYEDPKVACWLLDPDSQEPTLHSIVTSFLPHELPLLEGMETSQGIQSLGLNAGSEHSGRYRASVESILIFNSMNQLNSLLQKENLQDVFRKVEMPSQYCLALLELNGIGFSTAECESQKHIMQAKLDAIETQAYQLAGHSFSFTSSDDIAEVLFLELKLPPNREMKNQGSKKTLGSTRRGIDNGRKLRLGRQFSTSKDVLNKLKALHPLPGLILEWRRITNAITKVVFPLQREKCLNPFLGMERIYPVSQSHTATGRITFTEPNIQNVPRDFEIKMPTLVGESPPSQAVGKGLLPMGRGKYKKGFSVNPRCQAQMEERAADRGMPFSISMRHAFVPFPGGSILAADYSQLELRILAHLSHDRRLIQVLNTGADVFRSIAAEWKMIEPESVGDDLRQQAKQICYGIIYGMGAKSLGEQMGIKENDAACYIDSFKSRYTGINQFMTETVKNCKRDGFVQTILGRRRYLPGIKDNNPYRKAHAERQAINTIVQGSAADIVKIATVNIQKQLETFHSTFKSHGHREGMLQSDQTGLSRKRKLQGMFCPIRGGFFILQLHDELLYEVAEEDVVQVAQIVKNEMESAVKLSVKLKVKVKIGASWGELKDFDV
Method: The ability of the compounds of Formula (I) to inhibit polymerase activity of Pol theta was determined using the assay described below.
A mixture of 20 uL of Pol theta polymerase domain (residues 1819-2590) at a final concentration of 4 nM in assay buffer (20 m M TRIS, pH 7.80, 50 mM KCl, 10 mM MgCl2, 1 mM DTT, 0.01% BSA, 0.01% Tween20) was added to test compounds (11-point dilution series of test compounds) except the low control wells without test compounds. The above enzyme and test compound inhibitor mixture was then incubated at room temperature for 15 min. An equal volume (20 μl) of dNTP substrate mixture (48 μM) and primed molecular beacon DNA (obtained by annealing template SEQ ID NO 2: (5′-CCTTCCTCCCGTGTCTTG-TACCTTCCCGTCA-GGAGGAAGG-3′) with 5′-TAMRA and 3′-BHQ and primer DNA (SEQ ID NO: 3; 5′-GACGGGAAGG-3′) in 10 mM Tris-HCl pH 8.0, 100 mM NaCl buffer) (96 nM) in assay buffer was added to all the test wells. The inhibition activity was measured by monitoring the fluorescence change over 30 min at 535 nm upon excitation at 485 nm. The high control (DMSO with enzyme) with high fluorescence intensity represents no inhibition of polymerase reaction while the low control (DMSO with buffer) with low fluorescence intensity represents full inhibition of polymerase activity. Slope of the reaction progress curves were used to calculate the rate of polymerization. The rates were used to determine the percent inhibition using a four-parameter inhibition model to generate IC50, Hill slope and max inhibition.

`Cc1nc(OCC(=O)N(C)c2ccc(Cl)c(Cl)c2)c(C#N)c(C)c1Cl` [Example 33, 2-(5-chloro-3-cyano-4,6-dimethylpyridin-2-yloxy)-N-(3,4-dichlorophenyl)-N-methylacetamide] and `Cc1nc(OCC(=O)N(C)c2ccc(Cl)cc2)c(C#N)c(C)c1Cl` [Example 41, 2-[(5-chloro-3-cyano-4,6-dimethylpyridin-2-yl)oxy]-N-(4-chloro-phenyl)-N-methylacetamide] cannot be ordered by IC50: under 200 nM for the first, under 200 nM for the second.

First: Cc1cc(NCC(=O)N(C)c2ccccc2)nc(C)c1Cl [Example 34, 2-[(5-chloro-4,6-dimethylpyridin-2-yl)amino]-N-methyl-N phenylacetamide]
Second: Cc1nc(NCC(=O)N(C)c2ccccc2)c(C#N)cc1Cl [Example 38, 2-(5-chloro-3-cyano-6-methylpyridin-2-ylamino)-N-methyl-N-phenylacetamide]
The IC50 of the first is higher: 500 to 1000 nM for the first, 200 to 500 nM for the second. The second is the more potent here.

`Cc1nc(OCC(=O)N(C)c2ccc(Br)cc2)c(C#N)c(C)c1Cl` [Example 35, N-(4-bromophenyl)-2-[(5-chloro-3-cyano-4,6-dimethylpyridin-2-yl)oxy]-N-methylacetamide] and `Cc1nc(OCC(=O)N(C)c2ccc(F)cc2)c(C#N)c(C)c1Cl` [Example 43, 2-[(5-chloro-3-cyano-4,6-dimethylpyridin-2-yl)oxy]-N-(4-fluoro-phenyl)-N-methylacetamide] cannot be ordered by IC50: under 200 nM for the first, under 200 nM for the second.

First: Cc1c(Cl)cnc(NCC(=O)N(C)c2ccccc2)c1C#N [Example 37, 2-(5-chloro-3-cyano-4-methylpyridin-2-ylamino)-N-methyl-N-phenylacetamide]
Second: Cc1nc(NCC(=O)N(C)c2ccc(Br)cc2)c(C#N)c(C)c1Cl [Example 39, N-(4-bromophenyl)-2-(5-chloro-3-cyano-4,6-dimethyl-pyridin-2-ylamino)-N-methylacetamide]
The IC50 of the first is higher: 200 to 500 nM for the first, under 200 nM for the second.

`Cc1nc(NCC(=O)N(C)c2ccc(Cl)cc2)c(C#N)c(C)c1Cl` [Example 40, 2-(5-chloro-3-cyano-4,6-dimethylpyridin-2-ylamino)-N-(4-chlorophenyl)-N-methylacetamide] and `Cc1nc(NCC(=O)N(C)c2ccc(F)cc2)c(C#N)c(C)c1Cl` [Example 42, 2-(5-chloro-3-cyano-4,6-dimethylpyridin-2-ylamino)-N-(4-fluorophenyl)-N-methylacetamide] cannot be ordered by IC50: under 200 nM for the first, under 200 nM for the second.

`CN(C(=O)CNc1nc(C(F)(F)F)cc(C(F)(F)F)c1C#N)c1ccc2occc2c1` [Example 46, N-(benzofuran-5-yl)-2-((3-cyano-4,6-bis(trifluoromethyl)pyridin-2-yl)amino)-N-methylacetamide] and `Cc1cc2cc(N(C)C(=O)CNc3nc(C(F)(F)F)cc(C(F)(F)F)c3C#N)ccc2o1` [Example 52, 2-((3-cyano-4,6-bis(trifluoromethyl)pyridin-2-yl)amino)-N-methyl-N-(2-methylbenzofuran-5-yl)acetamide] cannot be ordered by IC50: under 200 nM for the first, under 200 nM for the second.

`[2H]C([2H])([2H])N(C(=O)CNc1nc(C(F)(F)F)cc(C(F)(F)F)c1C#N)c1ccc(F)cc1` [Example 47, 2-((3-cyano-4,6-bis(trifluoromethyl)pyridin-2-yl)amino)-N-(4-fluorophenyl)-N-(methyl-d3)acetamide] and `CN(C(=O)CNc1nc(C(F)(F)F)cc(C(F)(F)F)c1C#N)c1ccc(Br)cc1` [Example 61, N-(4-bromophenyl)-2-((3-cyano-4,6-bis(trifluoromethyl)pyridin-2-yl)amino)-N-methylacetamide] cannot be ordered by IC50: under 200 nM for the first, under 200 nM for the second.

First: CN(C(=O)CNc1nc(C(F)(F)F)cc(C(F)(F)F)c1C#N)c1ccc(F)cc1Cl [Example 48, N-(2-chloro-4-fluorophenyl)-2-((3-cyano-4,6-bis(trifluoromethyl)pyridin-2-yl)-amino)-N-methylacetamide]
Second: CN(C(=O)CNc1nc(C(F)(F)F)cc(C(F)(F)F)c1C#N)c1ccc(F)cc1C#N [Example 49, 2-((3-cyano-4,6-bis(trifluoromethyl)pyridin-2-yl)amino)-N-(2-cyano-4-fluorophenyl)-N-methylacetamide]
The IC50 of the first is lower: under 200 nM for the first, 500 to 1000 nM for the second.

`CN(C(=O)CNc1nc(C(F)(F)F)cc(C(F)(F)F)c1C#N)c1ccc2c(c1)ncn2C` [Example 50, 2-((3-cyano-4,6-bis(trifluoromethyl)pyridin-2-yl)amino)-N-methyl-N-(1-methyl-1H-benzo[d]imidazol-5-yl)acetamide] and `CN(C(=O)CNc1nc(C(F)(F)F)cc(C(F)(F)F)c1C#N)c1ccc2c(cnn2C)c1` [Example 54, 2-((3-cyano-4,6-bis(trifluoromethyl)pyridin-2-yl)amino)-N-methyl-N-(1-methyl-1H-indazol-5-yl)acetamide] cannot be ordered by IC50: under 200 nM for the first, under 200 nM for the second.

`Cc1coc2ccc(N(C)C(=O)CNc3nc(C(F)(F)F)cc(C(F)(F)F)c3C#N)cc12` [Example 51, 2-((3-cyano-4,6-bis(trifluoromethyl)pyridin-2-yl)amino)-N-methyl-N-(3-methylbenzofuran-5-yl)acetamide] and `CN(C(=O)CNc1nc(C(F)(F)F)cc(C(F)(F)F)c1C#N)c1ccc2c(ccn2C)c1` [Example 55, 2-((3-cyano-4,6-bis(trifluoromethyl)pyridin-2-yl)amino)-N-methyl-N-(1-methyl-1H-indol-5-yl)acetamide] cannot be ordered by IC50: under 200 nM for the first, under 200 nM for the second.

`CN(C(=O)CNc1nc(C(F)(F)F)cc(C(F)(F)F)c1C#N)c1ccc2sccc2c1` [Example 53, N-(benzo[b]thiophen-5-yl)-2-((3-cyano-4,6-bis(trifluoromethyl)pyridin-2-yl)-amino)-N-methylacetamide] and `CN(C(=O)CNc1nc(C(F)(F)F)cc(C(F)(F)F)c1C#N)c1ccc2[nH]ccc2c1` [Example 56, 2-((3-cyano-4,6-bis(trifluoromethyl)pyridin-2-yl)amino)-N-(1H-indol-5-yl)-N-methylacetamide] cannot be ordered by IC50: under 200 nM for the first, under 200 nM for the second.

Compared with `CN(C(=O)CNc1nc(C(F)(F)F)cc(C(F)(F)F)c1C#N)c1ccc2ncncc2c1` [Example 57, 2-((3-cyano-4,6-bis(trifluoromethyl)pyridin-2-yl)amino)-N-methyl-N-(quinazolin-6-yl)acetamide], `CN(C(=O)CNc1nc(C(F)(F)F)cc(C(F)(F)F)c1C#N)c1ccc2nccnc2c1` [Example 58, 2-((3-cyano-4,6-bis(trifluoromethyl)pyridin-2-yl)amino)-N-methyl-N-(quinoxalin-6-yl)acetamide] is lower in IC50: 200 to 500 nM for the first, under 200 nM for the second.

First: CC(=O)N1Cc2ccc(N(C)C(=O)CNc3nc(C(F)(F)F)cc(C(F)(F)F)c3C#N)cc2C1 [Example 59, N-(2-acetylisoindolin-5-yl)-2-((3-cyano-4,6-bis(trifluoromethyl)pyridin-2-yl)amino)-N-methylacetamide]
Second: CN(C(=O)CNc1nc(C(F)(F)F)cc(C(F)(F)F)c1C#N)c1cc(Cl)cc(Cl)c1 [Example 60, 2-((3-cyano-4,6-bis(trifluoromethyl)pyridin-2-yl)amino)-N-(3,5-dichlorophenyl)-N-methylacetamide]
The IC50 of the first is higher: 500 to 1000 nM for the first, under 200 nM for the second.
